Measurements: patent US12667106B2, “Stabilized mutants of quorum quenching lactonase and use thereof in treatment of pathogens” (priority 2019, dated 2026)

What was measured:
[1] = target: putative parathion hydrolase (PPH) from M. tuberculosis, variant PPH_R2:P8-D12, H171Y (H172Y in SEQ ID NO: 1 numbering; SEQ ID NO: 3), MBP fusion SEQ ID NO: 12 (Mycobacterium tuberculosis, UniProt P9WHN9, H168Y); assay type: biochemical; conditions: pH 8.3
[2] = target: putative parathion hydrolase (PPH) from M. tuberculosis, variant PPH_R2:P4-D5, G58V (G59V in SEQ ID NO: 1 numbering; SEQ ID NO: 2), MBP fusion SEQ ID NO: 11 (Mycobacterium tuberculosis, UniProt P9WHN9, G55V); assay type: biochemical; conditions: pH 8.3

CCCC(=O)CC(=O)N[C@H]1CCOC1=O [C6-oxo-HSL, N-(3-oxo-hexanoyl)-homoserine lactone] showed a kcat [1] of 10.16 ± 1.46 s⁻¹ and a kcat [2] of 18.66 ± 1.16 s⁻¹.
